# In patent publication US20110301137A1 (APEX LABORATORIES PRIVATE LIMITED, priority 2009, published 2011):
# Where two headings read alike, the source gives them in different places.
# Format: physicochemical
# Details: for degradation of the API: 3 months; for Initial (%): at time of receipt of the API from the supplier
Structure (SMILES),degradation of the API,Initial (%) (Fusidic Acid BP),Initial (%) (Sodium Fusidate BP)
"CC(=O)O[C@H]1C[C@@]2(C)[C@@H](C[C@@H](O)[C@H]3[C@@]4(C)CC[C@@H](O)[C@@H](C)[C@@H]4CC[C@@]32C)/C1=C(\CCC=C(C)C)C(=O)O [Fusidic Acid, Fusidic acid]",7.7-11%,100.6,–
CC(=O)O[C@H]1C[C@@]2(C)[C@@H](C[C@@H](O)[C@H]3[C@@]4(C)CC[C@@H](O)[C@@H](C)[C@@H]4CC[C@@]32C)/C1=C(\CCC=C(C)C)C(=O)O [Sodium Fusidate],2.45-6%,–,98.7
